Assay results published in patent US20100099113A1, “MINIMIZED SMALL PEPTIDES WITH HIGH AFFINITY FOR FACTOR VIII AND FACTOR VIII-LIKE PROTEINS” (Technische Universitat Muenchen, priority 2006, published 2010).
Where no end group is shown, it is not given here. [ ]: non-standard residue; d: D form. Bpa = N[C@@H](Cc1ccc(C(=O)c2ccccc2)cc1)C(=O)O; 2Nal = N[C@@H](Cc1ccc2ccccc2c1)C(=O)O; Abu = CC[C@H](N)C(=O)O

What was measured:
[1] = target: T1, ReFacto (Homo sapiens, UniProt P00451, DEL763-1656); assay: Binding of ReFacto to peptide-coated resin; conditions: peptide immobilized on resin; Table 1
T1 construct: purchased Wyeth-Ayerst Pharmacia and Upjohn; host or cells: CHO cells
T1 sequence (P00451 with tags, fused parts or gaps DEL763-1656 limits assumed): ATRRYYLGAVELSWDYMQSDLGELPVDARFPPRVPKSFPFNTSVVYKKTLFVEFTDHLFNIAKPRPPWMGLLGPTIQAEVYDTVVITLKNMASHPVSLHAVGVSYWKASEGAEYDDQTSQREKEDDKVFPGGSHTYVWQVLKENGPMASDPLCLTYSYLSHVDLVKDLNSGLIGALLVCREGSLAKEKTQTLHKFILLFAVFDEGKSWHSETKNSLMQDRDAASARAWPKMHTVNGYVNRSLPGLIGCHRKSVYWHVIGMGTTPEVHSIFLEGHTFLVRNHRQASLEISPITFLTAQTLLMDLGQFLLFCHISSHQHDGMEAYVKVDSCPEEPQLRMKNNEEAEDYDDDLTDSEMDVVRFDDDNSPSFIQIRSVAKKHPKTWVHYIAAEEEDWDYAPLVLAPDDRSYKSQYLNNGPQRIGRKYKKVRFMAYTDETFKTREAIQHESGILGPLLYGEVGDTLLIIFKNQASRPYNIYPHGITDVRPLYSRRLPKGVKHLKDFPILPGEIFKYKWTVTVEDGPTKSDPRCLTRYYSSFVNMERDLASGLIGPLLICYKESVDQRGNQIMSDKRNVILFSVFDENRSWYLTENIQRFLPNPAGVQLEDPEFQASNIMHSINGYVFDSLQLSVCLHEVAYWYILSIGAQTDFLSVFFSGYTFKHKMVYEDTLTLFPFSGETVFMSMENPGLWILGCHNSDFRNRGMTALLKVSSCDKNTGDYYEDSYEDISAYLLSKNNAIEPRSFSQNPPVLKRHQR
T1 sequence (P00451 1668-2351 limits assumed): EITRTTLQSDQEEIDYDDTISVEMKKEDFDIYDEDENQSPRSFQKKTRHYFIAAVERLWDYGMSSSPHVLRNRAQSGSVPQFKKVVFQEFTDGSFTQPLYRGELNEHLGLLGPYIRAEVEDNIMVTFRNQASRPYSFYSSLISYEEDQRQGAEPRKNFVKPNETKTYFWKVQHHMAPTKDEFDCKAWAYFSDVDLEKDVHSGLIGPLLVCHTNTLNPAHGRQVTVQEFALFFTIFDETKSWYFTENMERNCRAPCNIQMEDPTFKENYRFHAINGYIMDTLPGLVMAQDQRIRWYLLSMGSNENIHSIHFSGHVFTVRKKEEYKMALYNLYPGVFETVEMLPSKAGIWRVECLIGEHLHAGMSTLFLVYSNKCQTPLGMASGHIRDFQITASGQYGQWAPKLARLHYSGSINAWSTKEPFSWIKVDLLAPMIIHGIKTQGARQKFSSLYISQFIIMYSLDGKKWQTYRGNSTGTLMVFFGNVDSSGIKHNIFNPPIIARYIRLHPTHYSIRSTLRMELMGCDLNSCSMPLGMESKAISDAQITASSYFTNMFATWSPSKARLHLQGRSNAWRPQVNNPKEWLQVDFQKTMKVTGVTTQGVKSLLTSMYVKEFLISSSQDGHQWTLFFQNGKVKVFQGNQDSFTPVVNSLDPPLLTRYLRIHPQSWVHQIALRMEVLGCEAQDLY

[2] = target: T2, Plasma-derived (pd-) human Factor VIII (Homo sapiens, UniProt P00451); assay: Binding of 125I-labeled pd-FVIII to peptide-coated Toyopearl resin (micro-beads assay); conditions: peptide immobilized on Toyopearl AF-Epoxy-650M resin; 125I-pd-FVIII, 2 hours room temperature; percent of maximal achievable binding (anti-FVIII Mab 8860-coated resin); mean ± SD of four determinations
T2 construct: from tissue; host or cells: human blood plasma (FVIII concentrate)
T2 sequence (P00451 20-1667 limits assumed, one chain of several): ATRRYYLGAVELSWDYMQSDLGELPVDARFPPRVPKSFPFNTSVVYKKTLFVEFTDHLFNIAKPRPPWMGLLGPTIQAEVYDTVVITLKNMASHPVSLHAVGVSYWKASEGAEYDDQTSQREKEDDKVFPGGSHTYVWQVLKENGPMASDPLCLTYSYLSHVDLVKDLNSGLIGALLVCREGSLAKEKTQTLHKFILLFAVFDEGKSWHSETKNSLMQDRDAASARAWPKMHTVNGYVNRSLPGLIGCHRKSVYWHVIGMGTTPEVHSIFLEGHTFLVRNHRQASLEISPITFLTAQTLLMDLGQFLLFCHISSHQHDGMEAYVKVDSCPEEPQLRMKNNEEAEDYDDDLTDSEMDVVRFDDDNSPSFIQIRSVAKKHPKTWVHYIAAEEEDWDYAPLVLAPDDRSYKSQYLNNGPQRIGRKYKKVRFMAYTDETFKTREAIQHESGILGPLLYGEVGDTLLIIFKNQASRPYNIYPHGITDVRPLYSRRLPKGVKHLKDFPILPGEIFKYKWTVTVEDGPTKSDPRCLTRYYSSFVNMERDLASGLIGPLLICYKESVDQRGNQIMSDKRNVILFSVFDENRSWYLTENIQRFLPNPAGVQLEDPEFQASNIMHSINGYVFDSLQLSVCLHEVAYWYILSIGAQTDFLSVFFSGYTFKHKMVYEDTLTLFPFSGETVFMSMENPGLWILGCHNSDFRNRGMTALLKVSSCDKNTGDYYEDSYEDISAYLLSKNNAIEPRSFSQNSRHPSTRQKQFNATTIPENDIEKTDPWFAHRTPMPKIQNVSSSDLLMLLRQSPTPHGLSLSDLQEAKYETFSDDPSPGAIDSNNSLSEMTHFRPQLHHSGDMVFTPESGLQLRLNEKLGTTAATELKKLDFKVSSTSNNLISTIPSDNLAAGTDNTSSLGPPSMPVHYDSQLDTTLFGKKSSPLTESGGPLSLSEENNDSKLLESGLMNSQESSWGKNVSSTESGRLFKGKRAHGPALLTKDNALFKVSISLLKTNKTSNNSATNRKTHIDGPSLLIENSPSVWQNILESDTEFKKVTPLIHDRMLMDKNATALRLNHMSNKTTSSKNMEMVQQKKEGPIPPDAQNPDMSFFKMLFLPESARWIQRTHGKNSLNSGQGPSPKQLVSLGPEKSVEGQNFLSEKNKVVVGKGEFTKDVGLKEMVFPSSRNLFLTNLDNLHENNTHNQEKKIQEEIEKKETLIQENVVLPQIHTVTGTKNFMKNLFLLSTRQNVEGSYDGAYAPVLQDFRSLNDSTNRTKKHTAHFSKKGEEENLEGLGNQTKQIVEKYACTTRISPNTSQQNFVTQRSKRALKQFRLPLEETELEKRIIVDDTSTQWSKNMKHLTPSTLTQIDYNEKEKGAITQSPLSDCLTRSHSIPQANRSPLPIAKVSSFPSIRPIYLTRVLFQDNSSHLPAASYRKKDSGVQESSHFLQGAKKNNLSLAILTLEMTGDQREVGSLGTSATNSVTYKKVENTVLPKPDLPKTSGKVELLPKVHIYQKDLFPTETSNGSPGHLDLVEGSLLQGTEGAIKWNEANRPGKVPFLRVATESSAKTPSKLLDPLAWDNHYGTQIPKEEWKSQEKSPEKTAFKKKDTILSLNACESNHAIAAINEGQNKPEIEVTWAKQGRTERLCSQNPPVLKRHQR
Procedure: Peptides S1 to S84 were immobilized on the Toyopearl AF-Epoxy-650M resin (Tosoh Biosep) as described by Jungbauer et al. For immobilization, 2.5 mg of each peptide was dissolved in 0.25 mL of the immobilization buffer (0.2 M sodium bicarbonate, pH 10.3), and 0.036 g of the dry resin powder (corresponding to 0.125 mL of swollen resin) was added, followed by incubation of the mixture with gentle rotation for 48 hours. Upon incubation for 48 hours the resin was washed once with immobilization buffer, once with 1 M NaCl and then 3 times with binding buffer, and binding of ^125I-labeled pd-FVIII to the peptide-coated and control resin was tested. The coupling density of each peptide in each of the reported experiments was as mentioned in Table 1. The control 0.25 mL portion of the resin was similarly treated in parallel experiment in the absence of peptide and was subsequently used as a control (designated as Background) in ^125I-pd-FVIII binding experiments. ^125I-pd-FVIII Bound/Background ratios were calculated as the amount of ^125I-pd-FVIII, bound to an immobilized peptide, divided by that bound to uncoated control resin, prepared as described above. This ratio represents a Signal/Noise ratio for the micro-beads assay, since ^125I-pd-FVIII bound to peptide represents the signal value and ^125I-pd-FVIII bound to peptide-uncoated resin represents the background (noise) value.
Plasma-derived (pd-) human Factor VIII (FVIII) was purified from concentrate by immunoaffinity chromatography on an anti-FVIII monoclonal antibody column followed by subsequent concentration of pd-FVIII by ion-exchange chromatography using Resource Q HR5/5 column.
The resin with immobilized peptides was washed in the binding buffer (0.01 M Hepes, 0.1 M NaCl, 5 mM CaCl2, 0.01% Tween-80). Subsequently, the resin was diluted in the binding buffer as 1:7 slurry and aliquoted into Eppendorf tubes (40 μL per tube). ^125I-pd-FVIII (100000 cpm in 10 μL) was added to the tubes and the volume of the mixture was adjusted to 100 μL by adding 50 μL of the binding buffer containing 4% BSA to give a 2% final concentration of BSA. After 2 hours of incubation at room temperature on a rotator, the samples were washed 4 times in the binding. After each wash the tubes were centrifuged at 5000 rpm for 1 min in an Eppendorf microcentrifuge, supernatant was discarded, and the resin was re-suspended in the washing buffer, followed by centrifugation under the same conditions. After four washes the tubes with pellet without supernatant were counted for radioactivity. The resin without peptide was processed similarly to account for non-specific pd-FVIII binding to tubes and resin itself, and the radioactivity in this control tube was considered as a background value. Since ^125I-pd-FVIII contains the some fraction damaged during radiolabeling, binding was calculated as a percent of maximal achievable binding, determined in separate experiment with anti-FVIII Mab 8860-coated resin.
All the measurements were performed in duplicates. Each experiment was performed using two independently prepared immobilized peptide samples. The data presented in each table are the mean values of the four determinations: duplicate determination in the two assays performed with beads on which peptides were independently immobilized on the different days. The value of standard deviation of the above quadruplicate determinations (duplicate determinations in two independent experiments) were typically less than 10% of the measured values of ^125I-pd-FVIII binding to peptides.

| Substance | % Binding ReFacto [1] [%] | % Binding pdFVIII [2] [%] |
| --- | --- | --- |
| Abu-W-E-Y-C [S50] | 36.4 ± 2.4 | 35.3 ± 2.4 |
| Ac-E-S-W-E-Y-C (Ac-ESWEYC) [S45] | 38.4 ± 2.6 | 36.4 ± 2.6 |
| C-S-W-E-Y [S20] | 45.3 ± 3.1 | 48.6 ± 3.3 |
| E-S-W-E-Y-C (ESWEYC) [S44] | 35.1 ± 2.4 | 38.0 ± 2.4 |
| S-W-D-Y-C [S43] | 35.6 ± 2.6 | 48.2 ± 2.8 |
| S-W-E-Phg-C [S53] | 42.5 ± 2.8 | 38.1 ± 2.7 |
| T-W-E-Y-C [S46] | 25.1 ± 1.9 | 37.0 ± 2.1 |
| Y-H-S-W-D-Y-C (YHSWDYC) [S48] | 40.2 ± 2.9 | 52.0 ± 3.1 |
| Y-H-S-W-E-Bip(4,4′)-C [S55] | 36.2 ± 2.1 | 51.5 ± 2.9 |
| Y-H-T-W-D-Y-C (YHTWDYC) [S52] | 51.2 ± 3.4 | 47.5 ± 3.3 |
| Y-H-T-W-E-Y-C (YHTWEYC) [S47] | 38.9 ± 2.8 | 47.5 ± 2.9 |
| YF[Abu]WEYC [S36] | 53.8 ± 5.0 | 62.0 ± 4.2 |
| YF[Abu]WEYC [S49] | 54.4 ± 3.8 | 64.5 ± 4.0 |
| YHSWE[2Nal]C [S56] | 51.5 ± 3.4 | 51.5 ± 3.4 |
| YHSWE[Bpa]C [S38] | 59.2 ± 4.8 | 52.3 ± 4.1 |
| YHS[2Nal]EYC [S42] | 47.8 ± 2.1 | 60.3 ± 2.2 |
| YHS[Bpa]E[Bpa]C [S51] | 49.3 ± 3.5 | 63.4 ± 3.8 |
| YH[Abu]WEYC [S54] | 44.4 ± 2.8 | 32.3 ± 2.6 |
